According to patent publication US10413575B2, “Pharmaceutical composition for preventing or treating inflammatory diseases, containing Lactococcus chungangensis as active ingredient” (CHUNG-ANG UNIVERSITY INDUSTRY-ACADEMIC COOPERATION …, priority 2015, dated 2019):

What was measured:
[1] = system: IL-4, IL-5, IL-12, IFN-γ, TNF-α, and TARC; test: Chemokine and cytokine protein levels in serum (ELISA); assay type: in vivo; details: BALB/c and NC/Nga, skin application, vs DNCB-induced atopy mice
Source text: Mice were divided into a total of five groups, a non-treatment (normal) group, a DNCB group, a Tacrolimus skin application group, a Lactococcus chungangensis skin application group, and a Lactococcus chungangensis oral administration group. Then, 0.1 g of hair removal cream was applied on the back and neck of BALB/c and NC/Nga mice, respectively, and hairs were removed using soft tissue paper to avoid wounds. After the mice were left for 5 days to heal minor wounds, 1% DNCB 200 (acetone:olive oil=3:1) was applied to the back and ears three times a week for two weeks to induce atopy. After atopy induction, Lactococcus chungangensis was applied to diseased parts at 10^9 cell/mouse twice a week for four weeks, while Lactococcus chungangensis was administered to oral cavity at 10^9 cell/mouse twice a week for four weeks. […] Tacrolimus was applied to atopy diseased parts at 100 mg/kg twice a week for four weeks.
In addition, the protein level changes of IL-4, IL-5, IL-12, IFN-γ, TNF-α, and TARC in the serum isolated from the blood taken from the heart of each of BALB/c mice and NC/Nga mice were measured using IL-4 Quantikine Immunoassay Kit, IL-5 Quantikine Immunoassay Kit, IL-12 Quantikine Immunoassay Kit, TNF-α Quantikine Immunoassay Kit, CCL17/TARC Quantikine Immunoassay Kit (R&D Systems, Minneapolis, Minn., USA), respectively, and the absorbance was determined at 450 nm by using a microplate reader.

[2] = system: DNCB-induced atopic BALB/c mice and NC/Nga mice; test: Histopathological test (H&E) of dorsal skin tissue and ears; assay type: in vivo; details: skin application, vs DNCB-induced atopic mice
Source text: Mice were divided into a total of five groups, a non-treatment (normal) group, a DNCB group, a Tacrolimus skin application group, a Lactococcus chungangensis skin application group, and a Lactococcus chungangensis oral administration group. Then, 0.1 g of hair removal cream was applied on the back and neck of BALB/c and NC/Nga mice, respectively, and hairs were removed using soft tissue paper to avoid wounds. After the mice were left for 5 days to heal minor wounds, 1% DNCB 200 (acetone:olive oil=3:1) was applied to the back and ears three times a week for two weeks to induce atopy. After atopy induction, Lactococcus chungangensis was applied to diseased parts at 10^9 cell/mouse twice a week for four weeks, while Lactococcus chungangensis was administered to oral cavity at 10^9 cell/mouse twice a week for four weeks. For efficacy comparison, Tacrolimus in use as an atopy medicine was used. Tacrolimus was applied to atopy diseased parts at 100 mg/kg twice a week for four weeks.
After the treatment of test materials, the dorsal skin tissue (1.5×1.5 cm) and ears of BALB/c mice and NC/Nga mice of the test and control groups were taken off, and fixed in 10% paraformaldehyde for 24 hours. The tissues were sufficiently hardened in paraffin, and sliced into five pieces to prepare slide glasses. […]

[3] = system: IL-4, IL-5, IL-12, IFN-γ, TNF-α, and TARC; test: Chemokine and cytokine mRNA expression in skin tissues (reverse transcription PCR); assay type: in vivo, BALB/c mice and NC/Nga mice; details: skin application
Protocol: After the ending of the treatment of the BALB/c and NC/Nga mice with test materials, the BALB/c and NC/Nga mice of the DNCB-induced atopic control group, the Tacrolimus skin application group, the Lactococcus chungangensis skin application group, and the Lactococcus chungangensis oral administration group were sacrificed. The skin tissues were extracted, and Trizol was added thereto, and the skin tissues were homogenized using a homogenizer until dissolved, and RNA was extracted from the homogenized tissues. Specifically, Trizol was added to the skin tissues extracted from BALB/c mice and NC/Nga mice of each of the control and test groups, and chloroform (CHCl3) was added thereto and mixed. Then, the mixture was allowed to stand for 10 minutes and centrifuged. The centrifuged supernatant was recovered, mixed with the same amount of 2-propanol, allowed to stand for 10 minutes, centrifuged again, washed with 80% EtOH, and dried, to thereby obtain RNA. cDNA was obtained by reverse transcription PCR using AMV reverse transcriptase, dNTP (Promega, Madison, Wis.), EX Taq DNA polymerase (Takara Shuzou, Kyoto, Japan), and the obtained cDNA was used to investigate the mRNA expression levels of atopic-related chemokines and cytokines. Specifically, PCR was performed using the primer pairs described in Table 5 below for chemokines and cytokines IL-4, IL-5, IL-12, IFN-γ, TNF-α, and TARC and control GAPDH, respectively. The PCR was performed for 30 cycles of 1 minute at 94° C., 30 seconds at 95° C., 30 seconds at 55-65° C., and 3 minutes at 70° C.

[4] = system: DNCB-induced atopic BALB/c mice; test: Visual evaluation of DNCB-induced atopic BALB/c mice; assay type: in vivo; design: key to dryness/scarring / edema / erosion/excoriation / erythema/hemorrhage: 0=absence; 1=mild; 2=moderate; 3=severe; key to Total severity score / Mean severity score: sum of 4 signs each 0=absence to 3=severe; details: skin application
Source text: (§1) Mice were divided into a total of five groups, a non-treatment (normal) group, a DNCB group, a Tacrolimus skin application group, a Lactococcus chungangensis skin application group, and a Lactococcus chungangensis oral administration group. Then, 0.1 g of hair removal cream was applied on the back and neck of BALB/c and NC/Nga mice, respectively, and hairs were removed using soft tissue paper to avoid wounds. After the mice were left for 5 days to heal minor wounds, 1% DNCB 200 (acetone:olive oil=3:1) was applied to the back and ears three times a week for two weeks to induce atopy. After atopy induction, Lactococcus chungangensis was applied to diseased parts at 10^9 cell/mouse twice a week for four weeks, while Lactococcus chungangensis was administered to oral cavity at 10^9 cell/mouse twice a week for four weeks. For efficacy comparison, Tacrolimus in use as an atopy medicine was used. Tacrolimus was applied to atopy diseased parts at 100 mg/kg twice a week for four weeks. Visual evaluation was conducted to determine a treatment effect in each of a Tacrolimus skin application group, a Lactococcus chungangensis skin application group, and a Lactococcus chungangensis oral administration group. Visual evaluation was conducted by evaluating the skin condition in four stages (0=absence, 1=mild, 2=moderate, 3=severe) according to the severity of erythema/hemorrhage, dryness/scarring, edema, and erosion/excoriation as evaluation indexes. A severity score of about 12 point or more was determined that the atopy symptoms reach the highest peak. The results are shown in Tables 1 to 5 for BALB/c mice, and Tables 6 to 10 for NC/Nga mice.

IgE [5] = test: Immunoglobulin IgE measurement in serum (ELISA), NC/Nga mice; assay type: in vivo; details: skin application
Protocol: (§2) After the ending of the treatment with test materials, BALB/c and NC/Nga mice of the five groups were sacrificed, and blood was collected from the heart. Serum was isolated from the blood to measure IgE. […] Absorbance was measured at 450 nm using a microplate reader to determine IgE protein level.

[6] = system: DNCB-induced atopic NC/Nga mice; test: Visual evaluation of DNCB-induced atopic NC/Nga mice; assay type: in vivo; design: key to dryness/scarring / edema / erosion/excoriation / erythema/hemorrhage: 0=absence; 1=mild; 2=moderate; 3=severe; key to Total severity score / Mean severity score: sum of 4 signs each 0=absence to 3=severe; details: skin application
Source text: as §1

IgE [7] = test: Immunoglobulin IgE measurement in serum (ELISA), BALB/c mice; assay type: in vivo; details: skin application, compared with the DNCB-induced group
Protocol: as §2

C=CC[C@@H]1/C=C(\C)C[C@H](C)C[C@H](OC)[C@H]2O[C@@](O)(C(=O)C(=O)N3CCCC[C@H]3C(=O)O[C@H](/C(C)=C/[C@@H]3CC[C@@H](O)[C@H](OC)C3)[C@H](C)[C@@H](O)CC1=O)[C@H](C)C[C@@H]2OC [Tacrolimus]
3: edema ([4]; 3 Weeks, evaluation 5) | erosion/excoriation ([4]; 3 Weeks, evaluation 5) | erythema/hemorrhage ([4]; 3 Weeks, evaluation 5) | erosion/excoriation ([4]; 3 Weeks, evaluation 6) | erythema/hemorrhage ([4]; 3 Weeks, evaluation 6) | dryness/scarring ([4]; 4 Weeks, evaluation 7) | erosion/excoriation ([4]; 4 Weeks, evaluation 7) | erythema/hemorrhage ([4]; 4 Weeks, evaluation 7) | erosion/excoriation ([4]; 4 Weeks, evaluation 8) | erythema/hemorrhage ([4]; 4 Weeks, evaluation 8) | dryness/scarring ([6]; 2 Weeks, evaluation 3) | edema ([6]; 2 Weeks, evaluation 3) | erythema/hemorrhage ([6]; 2 Weeks, evaluation 3) | dryness/scarring ([6]; 2 Weeks, evaluation 4) | erythema/hemorrhage ([6]; 2 Weeks, evaluation 4) | dryness/scarring ([6]; 3 Weeks, evaluation 5) | edema ([6]; 3 Weeks, evaluation 5) | erosion/excoriation ([6]; 3 Weeks, evaluation 5) | erythema/hemorrhage ([6]; 3 Weeks, evaluation 5) | dryness/scarring ([6]; 3 Weeks, evaluation 6) | erosion/excoriation ([6]; 3 Weeks, evaluation 6) | erythema/hemorrhage ([6]; 3 Weeks, evaluation 6) | dryness/scarring ([6]; 4 Weeks, evaluation 7) | edema ([6]; 4 Weeks, evaluation 7) | erosion/excoriation ([6]; 4 Weeks, evaluation 7) | erythema/hemorrhage ([6]; 4 Weeks, evaluation 7) | dryness/scarring ([6]; 4 Weeks, evaluation 8) | edema ([6]; 4 Weeks, evaluation 8) | erythema/hemorrhage ([6]; 4 Weeks, evaluation 8) | dryness/scarring ([6]; 5 Weeks, evaluation 9) | erosion/excoriation ([6]; 5 Weeks, evaluation 9) | erythema/hemorrhage ([6]; 5 Weeks, evaluation 9) | dryness/scarring ([6]; 5 Weeks, evaluation 10) | edema ([6]; 5 Weeks, evaluation 10) | erythema/hemorrhage ([6]; 5 Weeks, evaluation 10) | dryness/scarring ([6]; 6 Weeks, evaluation 11) | erythema/hemorrhage ([6]; 6 Weeks, evaluation 11)
5: Mean severity score ([4]; 1 Week) | Total severity score ([4]; 5 Weeks, evaluation 10) | Total severity score ([6]; 1 Week, evaluation 1)
2: erythema/hemorrhage ([4]; 1 Week, evaluation 1) | erosion/excoriation ([4]; 1 Week, evaluation 2) | erythema/hemorrhage ([4]; 1 Week, evaluation 2) | dryness/scarring ([4]; 2 Weeks, evaluation 3) | edema ([4]; 2 Weeks, evaluation 3) | erosion/excoriation ([4]; 2 Weeks, evaluation 3) | erythema/hemorrhage ([4]; 2 Weeks, evaluation 3) | dryness/scarring ([4]; 2 Weeks, evaluation 4) | edema ([4]; 2 Weeks, evaluation 4) | erosion/excoriation ([4]; 2 Weeks, evaluation 4) | erythema/hemorrhage ([4]; 2 Weeks, evaluation 4) | dryness/scarring ([4]; 3 Weeks, evaluation 5) | dryness/scarring ([4]; 3 Weeks, evaluation 6) | edema ([4]; 3 Weeks, evaluation 6) | edema ([4]; 4 Weeks, evaluation 7) | edema ([4]; 4 Weeks, evaluation 8) | dryness/scarring ([4]; 5 Weeks, evaluation 9) | edema ([4]; 5 Weeks, evaluation 9) | erythema/hemorrhage ([4]; 5 Weeks, evaluation 9) | dryness/scarring ([4]; 5 Weeks, evaluation 10) | dryness/scarring ([6]; 1 Week, evaluation 1) | dryness/scarring ([6]; 1 Week, evaluation 2) | erosion/excoriation ([6]; 1 Week, evaluation 2) | erosion/excoriation ([6]; 2 Weeks, evaluation 3) | edema ([6]; 2 Weeks, evaluation 4) | erosion/excoriation ([6]; 2 Weeks, evaluation 4) | edema ([6]; 3 Weeks, evaluation 6) | erosion/excoriation ([6]; 4 Weeks, evaluation 8) | edema ([6]; 5 Weeks, evaluation 9) | erosion/excoriation ([6]; 5 Weeks, evaluation 10) | edema ([6]; 6 Weeks, evaluation 11) | erosion/excoriation ([6]; 6 Weeks, evaluation 11) | dryness/scarring ([6]; 6 Weeks, evaluation 12) | edema ([6]; 6 Weeks, evaluation 12) | erosion/excoriation ([6]; 6 Weeks, evaluation 12) | erythema/hemorrhage ([6]; 6 Weeks, evaluation 12)
7: Total severity score ([4]; 5 Weeks, evaluation 9)
62%: inhibition of IgE production (IgE [5])
10: Total severity score ([4]; 3 Weeks, evaluation 6) | Total severity score ([4]; 4 Weeks, evaluation 7) | Total severity score ([6]; 2 Weeks, evaluation 4) | Total severity score ([6]; 6 Weeks, evaluation 11)
significantly reduced: protein level of IFN-γ [1] | protein level of IL-4 [1] | protein level of IL-5 [1] | protein level of IL-12 [1] | protein level of TARC [1] | protein level of TNF-α [1] | dead skin cell exfoliation, epidermal hypertrophy, and hyperkeratosis [2]
10.5: Mean severity score ([4]; 3 Weeks) | Mean severity score ([6]; 2 Weeks)
48%: inhibition of IgE production (IgE [7])
8: Mean severity score ([4]; 2 Weeks) | Total severity score ([4]; 2 Weeks, evaluation 3) | Total severity score ([4]; 2 Weeks, evaluation 4) | Total severity score ([6]; 6 Weeks, evaluation 12)
2.5: Mean severity score ([4]; 6 Weeks)
4: Total severity score ([4]; 1 Week, evaluation 1) | Total severity score ([4]; 6 Weeks, evaluation 11)
0: edema ([4]; 1 Week, evaluation 1) | edema ([4]; 6 Weeks, evaluation 12) | erosion/excoriation ([4]; 6 Weeks, evaluation 12) | erythema/hemorrhage ([4]; 6 Weeks, evaluation 12)
11.5: Mean severity score ([6]; 3 Weeks) | Mean severity score ([6]; 4 Weeks)
remarkably improved: skin condition observed by the naked eye [4]
9: Total severity score ([4]; 4 Weeks, evaluation 8) | Mean severity score ([6]; 6 Weeks)
1: dryness/scarring ([4]; 1 Week, evaluation 1) | erosion/excoriation ([4]; 1 Week, evaluation 1) | dryness/scarring ([4]; 1 Week, evaluation 2) | edema ([4]; 1 Week, evaluation 2) | dryness/scarring ([4]; 4 Weeks, evaluation 8) | erosion/excoriation ([4]; 5 Weeks, evaluation 9) | edema ([4]; 5 Weeks, evaluation 10) | erosion/excoriation ([4]; 5 Weeks, evaluation 10) | erythema/hemorrhage ([4]; 5 Weeks, evaluation 10) | dryness/scarring ([4]; 6 Weeks, evaluation 11) | edema ([4]; 6 Weeks, evaluation 11) | erosion/excoriation ([4]; 6 Weeks, evaluation 11) | erythema/hemorrhage ([4]; 6 Weeks, evaluation 11) | Total severity score ([4]; 6 Weeks, evaluation 12) | dryness/scarring ([4]; 6 Weeks, evaluation 12) | edema ([6]; 1 Week, evaluation 1) | erosion/excoriation ([6]; 1 Week, evaluation 1) | erythema/hemorrhage ([6]; 1 Week, evaluation 1) | edema ([6]; 1 Week, evaluation 2) | erythema/hemorrhage ([6]; 1 Week, evaluation 2)
6: Total severity score ([4]; 1 Week, evaluation 2) | Mean severity score ([4]; 5 Weeks) | Total severity score ([6]; 1 Week, evaluation 2)
11: Total severity score ([4]; 3 Weeks, evaluation 5) | Total severity score ([6]; 2 Weeks, evaluation 3) | Total severity score ([6]; 3 Weeks, evaluation 6) | Total severity score ([6]; 4 Weeks, evaluation 8) | Mean severity score ([6]; 5 Weeks) | Total severity score ([6]; 5 Weeks, evaluation 9) | Total severity score ([6]; 5 Weeks, evaluation 10)
9.5: Mean severity score ([4]; 4 Weeks)
12: Total severity score ([6]; 3 Weeks, evaluation 5) | Total severity score ([6]; 4 Weeks, evaluation 7)
reduced: mRNA expression level of IFN-γ [3] | mRNA expression level of IL-4 [3] | mRNA expression level of IL-5 [3] | mRNA expression level of IL-12 [3] | mRNA expression level of TARC [3] | mRNA expression level of TNF-α [3]
5.5: Mean severity score ([6]; 1 Week)
